molecular target: T1, Na^+ /H^+ exchange transport system (Rattus norvegicus, UniProt P26431); assay: Inhibitory effect on the Na^+ /H^+ exchange transport system (in vitro), pH change in isolated ventricular myocytes under an acid load; format: cell-based
T1 construct: isolated ventricular myocytes (rat); endogenous in cells; host or cells: isolated rat ventricular myocytes (primary cells)
Protocol: Inhibitry effect on the Na^+ /H^+ exchange transport system (in vitro)
A test was carried out according to the method of Iemori et al. (J. Hypertension, 8, 153 (1990)). In detail, inhibitory effect on the Na^+ /H^+ exchange transport system was evaluated by using as an indication a pH change in isolated ventricular myocytes (rat) under an acid load.

T1 sequence (P26431 whole entry): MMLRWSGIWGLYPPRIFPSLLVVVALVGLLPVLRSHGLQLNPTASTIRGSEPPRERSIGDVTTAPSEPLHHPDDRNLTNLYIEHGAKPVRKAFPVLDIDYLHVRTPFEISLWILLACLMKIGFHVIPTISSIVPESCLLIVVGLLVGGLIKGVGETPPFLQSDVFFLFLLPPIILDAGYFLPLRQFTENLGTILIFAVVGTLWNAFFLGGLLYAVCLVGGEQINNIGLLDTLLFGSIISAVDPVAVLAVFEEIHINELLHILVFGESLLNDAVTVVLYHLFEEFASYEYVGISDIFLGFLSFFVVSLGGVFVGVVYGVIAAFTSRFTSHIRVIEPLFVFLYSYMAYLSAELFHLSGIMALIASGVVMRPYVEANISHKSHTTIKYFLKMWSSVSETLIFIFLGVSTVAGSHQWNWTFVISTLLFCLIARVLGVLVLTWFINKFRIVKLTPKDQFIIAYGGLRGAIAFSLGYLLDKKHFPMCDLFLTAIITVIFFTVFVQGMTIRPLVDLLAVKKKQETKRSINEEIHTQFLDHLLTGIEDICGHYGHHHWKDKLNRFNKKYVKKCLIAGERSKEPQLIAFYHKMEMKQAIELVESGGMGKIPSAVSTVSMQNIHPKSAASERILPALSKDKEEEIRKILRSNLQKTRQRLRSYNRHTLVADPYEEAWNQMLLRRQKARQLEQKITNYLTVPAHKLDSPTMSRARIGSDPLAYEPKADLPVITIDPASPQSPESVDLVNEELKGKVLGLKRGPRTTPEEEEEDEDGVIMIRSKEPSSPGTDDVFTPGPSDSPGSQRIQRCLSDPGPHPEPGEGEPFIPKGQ

| IC50 [nM] | SMILES |
| --- | --- |
| 300 | Cc1ccc2c3c1cc(C(=O)N=C(N)N)n3CCC2=O [Example 1, N-(aminoiminomethyl)-5,6-dihydro-9-methyl-6-oxo-4H-pyrrolo [3,2,1-ij]quinoline-2-carboxamide methanesulfonate] |
| 200 | Cc1ccc2c3c1cc(C(=O)N=C(N)N)n3CCO2 [Example 2, N-(aminoiminomethyl)-2,3-dihydro-7-methyl-pyrrolo [1,2,3-de]-1,4-benzoxazine-5-carboxamide methanesulfonate] |
| 300 | NC(N)=NC(=O)c1cc2cccc3c2n1CCC3 [Example 3, N-(aminoiminomethyl)-5,6-dihydro-4H-pyrrolo [3,2,1-ij]quinoline-2-carboxamide methanesulfonate] |
